According to ChEMBL document CHEMBL1143216, “Synthesis of 1,2,3-triazole-linked pyrrolobenzodiazepine conjugates employing 'click' chemistry: DNA-binding affinity and anticancer activity” (2008):

Key:
SiHa = assay: Growth inhibition of human SiHa cells by SRB method; type: functional
A2780 = assay: Growth inhibition of human A2780 cells by SRB method; type: functional
PC-3 = assay: Growth inhibition of human PC3 cells by SRB method; type: functional
A549 = assay: Growth inhibition of human A549 cells by SRB method; type: functional
ZR-75-1 = assay: Growth inhibition of human Zr-75-1 cells by SRB method; type: functional
MCF7 = assay: Growth inhibition of human MCF7 cells by SRB method; type: functional
[1] = Growth inhibition of human Gurav cells by SRB method; type: functional
COLO 205 = assay: Growth inhibition of human Colo205 cells by SRB method; type: functional
[2] = Growth inhibition of human DWD cells by SRB method; type: functional
KB = assay: Growth inhibition of human KB cells by SRB method; type: functional
DNA = assay: Binding affinity to calf thymus DNA assessed as helix melting temperature at 20 uM after 18 hrs; type: nucleic-acid assay; conditions: Bos taurus

SMILES	GI50 (A2780)	GI50 (PC-3)	GI50 (A549)	GI50 (MCF7)	GI50 (COLO 205)	GI50 (KB)	ΔTm (DNA)	GI50 (SiHa)	GI50 (ZR-75-1)	GI50 [1]	GI50 [2]
COc1cccc2c1C(=O)c1c(O)c3c(c(O)c1C2=O)C[C@@](O)(C(=O)CO)C[C@@H]3O[C@H]1C[C@H](N)[C@H](O)[C@H](C)O1 [DOXORUBICIN]	170 nM	1810 nM	7250 nM	180 nM	150 nM	170 nM	–	180 nM	1790 nM	170 nM	100 nM
COC(=O)c1nnn(CCCCCOc2cc3c(cc2OC)C(=O)N2CCC[C@H]2C=N3)c1C(=O)OC	26000 nM	29100 nM	6120 nM	–	2170 nM	7190 nM	3.6 °C	2150 nM	1930 nM	26800 nM	26000 nM
COC(=O)c1nnn(CCCOc2cc3c(cc2OC)C(=O)N2C[C@@H](n4nnc(C(=O)OC)c4C(=O)OC)C[C@H]2C=N3)c1C(=O)OC	190 nM	–	7120 nM	2120 nM	2010 nM	1050 nM	4.5 °C	2170 nM	–	2420 nM	–
COC(=O)c1nnn(CCCCCOc2cc3c(cc2OC)C(=O)N2C[C@@H](n4nnc(C(=O)OC)c4C(=O)OC)C[C@H]2C=N3)c1C(=O)OC	160 nM	170 nM	2410 nM	2050 nM	1920 nM	1920 nM	5.9 °C	120 nM	5510 nM	1820 nM	150 nM
COc1cc2c(cc1O)N=C[C@@H]1CCCN1C2=O	140 nM	200 nM	160 nM	170 nM	110 nM	170 nM	0.7 °C	170 nM	2370 nM	160 nM	1490 nM
COC(=O)c1nnn(CCCCOc2cc3c(cc2OC)C(=O)N2CCC[C@H]2C=N3)c1C(=O)OC	130 nM	25400 nM	28700 nM	30500 nM	210 nM	2360 nM	0 °C	2040 nM	2120 nM	2390 nM	2240 nM
COC(=O)c1nnn(CCCCOc2cc3c(cc2OC)C(=O)N2C[C@@H](n4nnc(C(=O)OC)c4C(=O)OC)C[C@H]2C=N3)c1C(=O)OC	–	–	–	–	–	–	0 °C	–	–	–	–

The next lines start with results.

GI50 (A2780)	GI50 (PC-3)	GI50 (A549)	GI50 (MCF7)	GI50 (COLO 205)	GI50 (KB)	ΔTm (DNA)	SMILES	GI50 (SiHa)	GI50 (ZR-75-1)	GI50 [1]	GI50 [2]
–	–	–	–	–	–	2.3 °C	COC(=O)c1nnn([C@H]2C[C@H]3C=Nc4ccccc4C(=O)N3C2)c1C(=O)OC	–	–	–	–
914 nM	2230 nM	–	2170 nM	1090 nM	26400 nM	2.8 °C	COC(=O)c1nnn([C@H]2C[C@H]3C=Nc4cc(OC)c(OC)cc4C(=O)N3C2)c1C(=O)OC	210 nM	2470 nM	2390 nM	2260 nM
2480 nM	28700 nM	24700 nM	–	2090 nM	26600 nM	3.1 °C	COC(=O)c1nnn(CCCOc2cc3c(cc2OC)C(=O)N2CCC[C@H]2C=N3)c1C(=O)OC	2120 nM	2530 nM	25100 nM	25500 nM
25800 nM	–	–	27600 nM	27900 nM	–	2.2 °C	COC(=O)c1nnn([C@H]2C[C@H]3C=Nc4cc(OCc5ccccc5)c(OC)cc4C(=O)N3C2)c1C(=O)OC	2040 nM	–	–	29700 nM
